The results in this text go back to ChEMBL document CHEMBL1157539, “Thousands of chemical starting points for antimalarial lead identification” (Nature, 2010).

The assay deals with Plasmodium falciparum. Briefly: GSK_TCMDC: Inhibition of Plasmodium falciparum 3D7 in whole erythrocytes, using parasite LDH activity as an index of growth. It is filed as functional, organism-based. To be noted: Plasmodium falciparum, 3D7.
With `CCC[C@@H]([C@@H](CC(C)C)C(=O)N[C@@H](CCC/N=C(/N)NS(C)(=O)=O)C(=O)Nc1nccs1)N(O)C=O`, the XC50 came to 941 nM.

`CCNc1cc(C(=O)N[C@@H](Cc2ccccc2)[C@H](O)CNC(C)CCCC(C)C)cc(N2CCCS2(=O)=O)c1` (stereo partly specified) gave an XC50 of 219 nM. In turn, `FC(F)(F)c1cccc(C=NNc2nc3ccccc3[nH]2)c1` showed an XC50 of 148 nM.

Take `COc1cc2nc(-c3ccccc3)nc(N3CCN(CC(=O)N4CCCC4)CC3)c2cc1OC`: the XC50 amounted to 1130 nM. `CCC(C(=O)Nc1ccccc1)n1nc(-c2ccc(C)c(S(=O)(=O)N3CCCCC3)c2)ccc1=O` (stereo unspecified) had an XC50 of 1090 nM. `CCCCN(CCCC)CCCCNc1c2ccc(Cl)cc2nc2ccc(OC)cc12` displayed an XC50 of 175 nM. Consider `COc1cc(N(C)Cc2cnc3nc(N)nc(N)c3n2)cc(OC)c1OC`, for which the XC50 amounted to 435 nM.

Molecule `CN(C)CCN(Cc1ccccc1-c1ccc(CNCCc2ccccc2)cc1)C(=O)c1ccccc1` had an XC50 of 1700 nM.

`CCCN1CCN(c2ccccc2NS(=O)(=O)c2ccc(C(=O)Nc3ccc(Cl)cc3)cc2)CC1`: the XC50 turned out to be 1140 nM. Take `COc1ccc2nccc([C@@H](O)CN3CCC(NCc4nc5c(F)cccc5[nH]4)CC3)c2c1`: the XC50 turned out to be 467 nM. The result for `COc1cc(CNc2ccc(N3CCCC3)cc2)cc(Cl)c1OC` reads 700 nM.

`CC1(C)N=C(N)N=C(N)N1c1ccc2ccccc2c1` yielded an XC50 of 53.8 nM. In turn, `Cc1noc(C)c1-c1cccc(C(=O)NC2CCN(CCNC(=O)C(c3ccccc3)c3ccccc3)CC2)c1` had an XC50 of 1220 nM. Molecule `CSCCC(C(=O)O)N1C(=O)c2ccccc2C1=O` (stereo unspecified) displayed an XC50 of 1030 nM. `CCNc1cc(C(=O)NC(Cc2ccccc2)C(O)CNC(C)(C)CCCC(C)C)c(F)c(N2CCCS2(=O)=O)c1` (stereo unspecified) displayed an XC50 of 197 nM. For `COc1ccc2[nH]c(C)cc(=NN=Cc3ccc(F)cc3)c2c1`, the XC50 is 191 nM.

Regarding `Cn1cncc1-c1ccc2ncnc(Nc3ccc(OCc4ccccc4)cc3)c2c1`, the XC50 worked out at 1340 nM. In the case of `FC(F)(F)c1cccc(Nc2nc3ccccc3nc2Nc2cccc(C(F)(F)F)c2)c1`, the XC50 was 137 nM.

`O=C(NCCCCN1CCC(c2c[nH]c3ccc(-c4ccccc4)cc23)CC1)c1ccc(-c2ccccc2)cc1` gave an XC50 of 985 nM.

`N#Cc1cccc(-c2cnc(N)c(-c3nc4cc(S(N)(=O)=O)ccc4[nH]3)c2)c1` displayed an XC50 of 644 nM. Take `CCc1c(CCNCCCCCCNCCc2ccc([N+](=O)[O-])cc2)ccc(O)c1O`: the XC50 amounted to 783 nM.

`CCOc1cc(C(=O)NCc2cccc(C(F)(F)F)c2)ccc1-c1nc2cc(Cl)ccc2[nH]1` gave an XC50 of 977 nM.

`O=C(CC(c1ccccc1)c1ccccc1O)N1CCOCC1` (stereo unspecified): the XC50 came to 1520 nM. `CNCCNC(=O)C1Cc2c([nH]c3c(C)cccc23)C(c2ccc(Cl)c(Cl)c2)N1` (stereo unspecified) returned an XC50 of 716 nM. As to `O=C(/C=C/c1ccc(Cl)c(Cl)c1)NCCCCCN1CCC(NC(=O)Nc2cccc(Cl)c2)CC1`, the XC50 was 754 nM. For the molecule `Cc1c(Cc2ccccc2)c(=O)oc2c(C)c3c(cc12)CN(CC(C)c1ccccc1)CO3` (stereo unspecified), the XC50 stood at 454 nM.

Regarding `CC(=O)Nc1cccc(C(=O)Nc2cccc(-c3ccc(-c4nc5cccc(C)c5[nH]4)s3)c2)c1`, the XC50 was found to be 767 nM.

`COc1cc2cc(-c3nc4ccccc4[nH]3)c(N)nc2cc1OC` yielded an XC50 of 168 nM. Turning to `COc1ccc2nccc([C@@H](O)CN3CCC(NCc4cc5cccc6c5n(c4=O)CCC6)CC3)c2c1`, the XC50 is 861 nM. `CC1(C)S(=O)(=O)CC(O)CS1(=O)=O`: the XC50 worked out at 467 nM. The molecule `CS(=O)(=O)Nc1ccc2[nH]cc(C3CCN(CC4CCC(NC(=O)/C=C/c5ccc(Cl)c(Cl)c5)CC4)CC3)c2c1` (stereo unspecified) came in with an XC50 of 847 nM.

In turn, `Cc1ccc(-c2csc(C)n2)c(C)c1` yielded an XC50 of 991 nM.

Molecule `OC1(c2ccc(Br)cc2)CCN(C2CCN(Cc3ccccc3)CC2)CC1` returned an XC50 of 597 nM.

The molecule `O=C(/C=C/c1ccc(Cl)c(Cl)c1)N1CCC(CN2CCC(c3c[nH]c4ncccc34)CC2)CC1` registered an XC50 of 1090 nM.

Consider `CC[C@H]1CN2CC[C@H]1C[C@H]2[C@H](O)c1cc(-c2ccccc2C)nc2ccc(OC)cc12`, for which the XC50 was 195 nM. In turn, `O=C(Nc1cccc([N+](=O)[O-])c1)Nc1ccc(Cl)c(C(F)(F)F)c1` gave an XC50 of 1120 nM. `Cc1cc(-c2ccc3c(c2)CCN(CCCOc2ccc4c(c2)CCN4C(=O)/C=C/c2ccccc2Cl)CC3)no1` yielded an XC50 of 1230 nM.

`CCc1c(C(=O)NC2CCC(N3CCC(c4ccccc4C)CC3)CC2)[nH]c2ccc(OC)cc12` (stereo unspecified) had an XC50 of 808 nM. `CC(CN(C)C)C(=O)Nc1ccc(-c2ccc(-c3nc4ccccc4[nH]3)s2)cc1` (stereo unspecified) had an XC50 of 717 nM. The result for `O=C(Cc1cn(-c2ccccc2)nc1-c1ccc(Cl)cc1)Nc1nccs1` reads 1200 nM; that for `c1ccc(C23NC(=Nc4nc5ccccc5[nH]4)NC2(c2ccccc2)NC(=Nc2nc4ccccc4[nH]2)N3)cc1` (stereo unspecified), 276 nM; that for `COc1ccc(-c2cc(C(=O)N[C@@H](CC3CCCCC3)C(=O)NCCN3CCCC3)ccc2O)cc1`, 868 nM. Take `COc1ccc(CNC(=O)c2cc3c(=O)n4ccccc4nc3n(CCc3ccccc3)c2=N)cc1`: the XC50 worked out at 330 nM. With `Cc1cc(NC(=O)Nc2ccc3nc(C)oc3c2)c2cc(Cl)ccc2n1`, the XC50 was 1120 nM.

`COc1cc2c(c(Cl)c1OC)CCN(Cc1ccccc1)CC2c1ccc(C(N)=O)cc1` (stereo unspecified) showed an XC50 of 848 nM. The result for `COc1ccc(-c2ccc(S(=O)(=O)Nc3cc4c(cc3OC(C)C)CCNCC4)cc2)cc1` reads 969 nM. Molecule `Nc1c2c(nc3ccc(C(=O)Nc4ccccc4)cc13)CCCC2` yielded an XC50 of 714 nM. Consider `COc1ccc(C(=O)c2ccc3[nH]cc(C4=CCN(C)CC4)c3c2)cc1`, for which the XC50 was determined as 1050 nM. For the molecule `CC(Cc1ccc(OCCCCOc2ccccc2)cc1)NCCCc1nc2ccccc2[nH]1` (stereo unspecified), the XC50 amounted to 981 nM.

`CCCCN(CCCC)/C(=N/C(=N)Nc1ccc(Cl)cc1)NCCCCCCN/C(=N\C(=N)Nc1ccc(Cl)cc1)N(CCCC)CCCC` displayed an XC50 of 791 nM.

For `Cc1ccc(CNC(=O)[C@H](CCCN)Nc2nc(NCC3CCCCC3)ncc2C)cc1`, the XC50 worked out at 987 nM. On to `FC(F)(F)c1ccc2[nH]c(-c3ccc(-c4cccc(CNCCN5CCNCC5)c4)cc3)nc2c1`, for which the XC50 stood at 1030 nM. `CC1CCN(c2nc(C(=O)NCCc3ccc(Cl)c(Cl)c3)c(C(C)C)s2)CC1`: the XC50 was 1930 nM.

Regarding `COc1ccccc1-c1ccc2nnc(SCC(=O)Nc3ccc4c(c3)OCCO4)n2n1`, the XC50 was 716 nM.

Molecule `O=S(=O)(NCCN1CCCC1)c1cccc(-c2cccc(CNCCc3cccs3)c2)c1` registered an XC50 of 753 nM. `Cc1cc(OCCCN2CCC(NS(=O)(=O)c3ccc(C(F)(F)F)cc3)CC2)c2ccccc2n1` came in with an XC50 of 1220 nM.

For the molecule `Cc1cc(OCCCN2CCCCC2C)ccc1NC(=O)COc1ccc(Cl)cc1C(=O)c1cc(Cl)cc(C#N)c1` (stereo unspecified), the XC50 was determined as 981 nM. As for `COc1ccc(Nc2nccc(N3CCC(NC(=O)Nc4ccc5c(c4)OCO5)C3)n2)cc1` (stereo unspecified), the XC50 came to 599 nM. In turn, `COc1cc(-c2cc(-c3ccc(OCCN(C)C)cc3)[nH]c2-c2ccncc2)ccc1Cl` showed an XC50 of 711 nM. For the molecule `COc1ccc(CNCc2ccc(F)cc2)cc1-c1ccc(S(=O)(=O)NCCN2CCCC2)cc1`, the XC50 stood at 1040 nM. The result for `CCOc1cc(C(=O)NCCN2CCCCC2)ccc1-c1nc2cc(Cl)ccc2[nH]1` reads 1080 nM; that for `COc1cc(C=CC(=O)N2CCC(CN3CCC(c4c[nH]c5ccccc45)CC3)CC2)cc(OC)c1`, 804 nM; that for `COC(=O)c1ccc(CCC(C)NCC(O)c2cccc(Cl)c2)cc1` (stereo unspecified), 670 nM.

With `CC(C)(C)c1ccc(NC(=O)c2ccc(CN3CCCN(Cc4cccc(F)c4)CC3)cc2)cc1`, the XC50 turned out to be 1120 nM. `CCS(=O)(=O)Nc1ccc2[nH]cc(C3CCN(CCC4CCN(C(=O)/C=C/c5ccc(Cl)c(Cl)c5)CC4)CC3)c2c1` displayed an XC50 of 534 nM. The result for `Cc1ccc(C(=O)Nc2ccc(C)c(OC3CCN(CCC(C)C)C3)c2)cc1` (stereo unspecified) reads 793 nM. As for `CCN(CC)CCNc1ccnc2c3ccccc3n(C)c12`, the XC50 was found to be 238 nM.

Molecule `CCCCN1CCN(CCCNc2c3ccccc3nc3ccccc23)CC1` displayed an XC50 of 512 nM.

Take `COc1ccc2[nH]cc(C3CCN(CCCCCNC(=O)c4ccc(-c5ccccc5)cc4)CC3)c2c1`: the XC50 was found to be 795 nM. Regarding `Cc1ccc2ccncc2c1N`, the XC50 came to 697 nM. Molecule `O=C(/C=C/c1ccc(Cl)c(Cl)c1)NCC1CCC(CN2CCC(c3c[nH]c4ccccc34)CC2)CC1` (stereo unspecified) had an XC50 of 356 nM.

Take `Cc1csc(-c2nc(NCCc3c(C)noc3C)ncc2-c2ccsc2)n1`: the XC50 came to 177 nM. Regarding `Cc1nnc(-c2ccc3ccccc3c2)c2cn(-c3cccc([N+](=O)[O-])c3)nc12`, the XC50 came to 988 nM. Consider `COc1ccc(C(=O)C2CC2CN2CC=C(c3c[nH]c4ccccc34)CC2)cc1` (stereo unspecified), for which the XC50 is 532 nM.

`Cc1c(Cn2ncc(N3CC(C)NC(C)C3)c(Cl)c2=O)cccc1NC(=O)Nc1ccc(-c2ccccc2)cc1` (stereo unspecified) registered an XC50 of 596 nM. `COc1cccc(-c2nn(C)c3sc(C(=O)NCCN4CCN(c5ccccc5F)CC4)cc23)c1` yielded an XC50 of 955 nM. The result for `CN1CCC(NCc2ccc(-c3ccc(S(=O)(=O)NCc4ccccc4)c(F)c3)cc2)CC1` reads 611 nM. The molecule `CS(=O)(=O)NCCCNCc1ccc(-c2ccc(-c3nc4cc(F)ccc4[nH]3)cc2)cc1` yielded an XC50 of 935 nM. The result for `CCCCCCc1ncc(-c2cc3cc(O)c(-c4ccccc4)cc3oc2=O)s1` reads 1240 nM; that for `COc1cccc(NC(=O)NC2CCN(c3ccnc(Nc4cc(OC)c(OC)c(OC)c4)n3)C2)c1` (stereo unspecified), 856 nM; that for `CC(C)CNCc1ccc(-c2ccc(CN(C(=O)Nc3ccccc3)C3CCN(Cc4ccccc4)CC3)cc2)cc1`, 680 nM.

Regarding `Cc1ccc(CN2CCC(C(=O)Nc3ccc(-c4cc5ccccc5[nH]4)cc3)CC2)o1`, the XC50 was determined as 1420 nM. `CCCOc1ccc(OCCCON2C(=N)N=C(N)NC2(C)C)cc1` showed an XC50 of 3.2 nM. For the molecule `N#Cc1ccccc1S(=O)(=O)N1CCCC(CNC(=O)[C@H](CC2CCCCC2)NC(=O)c2cc3ccccc3s2)C1` (stereo partly specified), the XC50 amounted to 515 nM. With `CS(=O)(=O)N(CC(O)Cn1c2ccc(Cl)cc2c2cc(Cl)ccc21)c1ccccc1` (stereo unspecified), the XC50 is 897 nM.

`CN1CCCC(CN2CCN(Cc3cccc(-c4csc(-c5nc6ccccc6[nH]5)c4)c3)CC2)C1` (stereo unspecified) had an XC50 of 414 nM.
